Reference: patent publication US20050271637A1, “BMP-2 estrogen responsive element and methods of using the same” (priority 2002, published 2005)
Entries after “also recorded” stand apart in the source; their conditions may differ.

What was measured:
[1] = tested on: mouse BMP-2 mRNA; test: Real-time RT-PCR of BMP-2 mRNA in bone marrow MSCs from OVX mice; type: cell-based; conditions: 100 nM E2, 24 hr
Description: Two months old Swiss-Webster female mice (ICR) were OVX in accordance with mandated standards of humane care, and the animals were maintained in accordance with the NIH Guide for the Care and Use of Laboratory Animals. After 5 months post-surgery, bone marrow was isolated from femurs and tibias, and the MSCs were cultured as described previously (Gazit et al. 1999 and Zhou et al. 2001). The bone marrow cells were maintained in DMEM (Phenol red free, 1.0 g/L glucose, Biological Industries, Israel) with 15% FBS (Charcoal stripped, heat-inactivated), 100 units/ml penicillin, 100 μg/ml streptomycin, and 2 mM glutamine. […]
(§1) RNA was isolated using TRizol Reagent (Life Technologies, USA), according to the manufacturer's protocol. Semi-quantitative RT-PCR was performed as described previously (Zhou et al. 2001). […]
Real-Time PCR was performed using a Roche LightCycler according to the manufacturer's protocol (Roche Molecular Biochemicals, USA). […] Fluoresence was measured at 82° C. for 5 s. To quantify the copy number of the mouse BMP-2 mRNA in MSCs, pGEM-T-mouse BMP-2 plasmids ([…]) were used in standard curve.
All experiments were performed three to five times independently. […] The semi-quantitative RT-PCR and real-time RT-PCR were performed 3 times in independent experiments using total RNA that was isolated from MSCs derived from 3-6 animals each time. […]

[2] = tested on: mouse BMP-2 mRNA; test: Semi-quantitative RT-PCR of BMP-2 mRNA in MSCs from OVX mice; type: cell-based; conditions: for BMP-2 mRNA expression, effect of the substance alone: E2 100 nM, ICI 10 μM, tamoxifen 1.0 μM, raloxifene 100 nM
Description: (§2) Two months old Swiss-Webster female mice (ICR) were OVX in accordance with mandated standards of humane care, and the animals were maintained in accordance with the NIH Guide for the Care and Use of Laboratory Animals. After 5 months post-surgery, bone marrow was isolated from femurs and tibias, and the MSCs were cultured as described previously (Gazit et al. 1999 and Zhou et al. 2001). The bone marrow cells were maintained in DMEM (Phenol red free, 1.0 g/L glucose, Biological Industries, Israel) with 15% FBS (Charcoal stripped, heat-inactivated), 100 units/ml penicillin, 100 μg/ml streptomycin, and 2 mM glutamine. At day 4, the cultures were supplemented with 50 μg/ml ascorbic acid, 10 mM β-glycerophosphate, and 10 nM dexamethasone. From day 10, the cells were cultured in DMEM with 2% charcoal stripped (CS)-FBS without osteogenic supplements. […] RNA then was isolated at day 12. […] Mouse C3H10T1/2 cells were cultivated in DMEM (Sigma and Biological Industries) with 10% FBS, 100 units/ml penicillin, 100 μg/ml streptomycin, and 2 mM glutamine.
RNA was isolated using TRizol Reagent (Life Technologies, USA), according to the manufacturer's protocol. Semi-quantitative RT-PCR was performed as described previously (Zhou et al. 2001). Mouse BMP-2 (505 bp) (Zhou et al. 2001), internal control RPL19 (190 bp) (Orly et al. 1994) and c-myc (550 bp) (Goswami et al. 1997) primers were described previously. The PCR conditions used for mouse BMP-2 RT-PCR were 30 cycles of 94 C for 1 min, 55 C for 1 min and 72 for 2 min in an MJ MiniCycler (MJ Research, USA). RT-PCR products of mouse BMP-2 were cloned into the pGEM-T Easy vector (A1360, Promega), and the pGEM-T-mouse BMP-2 vectors were sequenced by a T7 sequence sequencing kit (US70770, USB, Cleveland, USA) according to the manufacturer's protocols. DNA sequence analysis confirmed that mouse BMP-2 had been amplified.
All experiments were performed three to five times independently. Data re presented as the mean values±the standard error of the mean. The semi-quantitative RT-PCR and real-time RT-PCR were performed 3 times in independent experiments using total RNA that was isolated from MSCs derived from 3-6 animals each time. Quantitative data were analyzed using either the non-parameteric Mann-Whitney test or the ANOVA test.

[3] = tested on: c-myc mRNA; test: Semi-quantitative RT-PCR of c-myc mRNA in MSCs from OVX mice; type: cell-based, mouse; conditions: 5.0 μM cycloheximide
Description: as §2, §1

[4] = target: human ERβ (Homo sapiens, UniProt Q92731); test: Mouse BMP-2 promoter-luciferase assay in C3H10T1/2 cells co-transfected with human ERβ; conditions: 24 hr; E2 different doses or 10 nM, raloxifene 100 nM, tamoxifen 1.0 μM, genistein 100 nM
human ERβ, sequence (Q92731 46-530 limits assumed): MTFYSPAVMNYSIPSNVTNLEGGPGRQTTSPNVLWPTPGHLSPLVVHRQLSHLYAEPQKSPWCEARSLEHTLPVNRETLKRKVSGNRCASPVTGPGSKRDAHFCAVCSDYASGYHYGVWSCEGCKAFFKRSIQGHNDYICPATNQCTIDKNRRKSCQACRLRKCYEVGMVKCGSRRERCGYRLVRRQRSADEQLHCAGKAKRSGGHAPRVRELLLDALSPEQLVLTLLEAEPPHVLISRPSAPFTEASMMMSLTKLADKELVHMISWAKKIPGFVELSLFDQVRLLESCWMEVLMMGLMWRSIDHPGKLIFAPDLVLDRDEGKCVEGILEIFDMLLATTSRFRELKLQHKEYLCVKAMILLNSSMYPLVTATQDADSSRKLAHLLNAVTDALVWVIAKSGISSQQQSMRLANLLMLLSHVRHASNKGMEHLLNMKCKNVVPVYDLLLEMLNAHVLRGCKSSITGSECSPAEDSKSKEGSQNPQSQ

Q: Which “increase of mouse BMP-2 mRNA levels” value ([1]; versus untreated) does the source give for `C[C@]12CC[C@@H]3c4ccc(O)cc4CC[C@H]3[C@@H]1CC[C@@H]2O` [E2, estradiol] here?
A: 2.4 fold

Q: What about the “mouse BMP-2 mRNA levels” value ([1]; in 2 μg of total RNA, untreated 570±81 copies, p<0.05, ANOVA) of the same molecule?
A: 1337±177 copies

Q: With `C[C@]12CC[C@@H]3c4ccc(O)cc4C[C@@H](CCCCCCCCC[S+]([O-])CCCC(F)(F)C(F)(F)F)[C@H]3[C@@H]1CC[C@@H]2O` (stereo partly drawn) [ICI-182,780] as the molecule, how does the “BMP-2 mRNA expression, effect of the substance alone” value (“BMP-2 mRNA expression, effect” below) ([2]; 24 hr, listed as ICI) read?
A: had no effect; also recorded: failed to activate

Q: What about the “effect on up-regulation of BMP-2 mRNA expression by E2” value ([2]; ICI 10 μM with E2 100 nM, 24 hr, listed as ICI) of the same molecule?
A: blocked; also recorded: inhibited

Q: Which results are given for `C[C@@H]1C[C@@H]([C@H](O)CC2CC(=O)NC(=O)C2)C(=O)[C@@H](C)C1` [cycloheximide]?
A: effect on up-regulation of BMP-2 mRNA by E2 ([2]; 5.0 μM cycloheximide added 45 min before 100 nM E2, RNA 4 hr after E2): did not block; c-myc mRNA levels [3]: super-induction; also recorded: superinduction

Q: For `O=C(c1ccc(OCCN2CCCCC2)cc1)c1c(-c2ccc(O)cc2)sc2cc(O)ccc12` [raloxifene], which “BMP-2 mRNA expression, effect” value ([2]; 24 hr) is on record?
A: failed to activate

Q: And the “full-length mouse BMP-2 promoter (−2712) activity via ERβ” value [4]?
A: not via ERβ

Q: How did the “BMP-2 mRNA expression, effect” value ([2]; 24 hr) turn out when `CC/C(=C(\c1ccccc1)c1ccc(OCCN(C)C)cc1)c1ccccc1` [tamoxifen] was run?
A: failed to activate
